Results: patent US20240252496A1, “SELECTIVE HYPOTHALAMUS PERMEABLE HDAC6 INHIBITORS FORTREATMENT OF LEPTIN-RESISTANT OBESITY” (The Children’s Medical Center Corporation, priority 2022, published 2024)
Values joined by “and” are separate entries in the source; they are usually repeats but may differ in a detail not shown here. Equal values may be shown once. Read-outs that look alike come from different tables or passages of the source.

How the values were obtained:
DIO mice [1] = assay: Metabolic cages (CLAMS) in DIO mice; format: in vivo; conditions: for energy expenditure: 3 days, ACY775 10, ACY738 50 mg/kg i.p.
Experimental: Diet induced obese (DIO) mice were placed into metabolic cages and received ACY775 (10 mg/kg, i.p., n=7) or vehicle (n=8) once a day for 3 days. Energy expenditure, respiratory exchange ratios (RER; VCO2/VO2), ambulatory count (physical activity) from each group of mice were determined. Bar graphs represent average of two dark (8-20 and 32-44 hr) and two light cycles ([…]).
Comprehensive Lab Animal Monitoring System (CLAMS) was used to measure metabolic parameters such as energy expenditure (EE) and respiratory exchange ratio (RER) and physical activity levels in Vehicle- and ACY775-treated mice.

HDAC6 KO mice = assay: 3-week treatment of DIO WT versus HDAC6 KO mice; format: in vivo; conditions: for body weight, HDAC6 KO vs WT DIO mice: 3 weeks i.p., ACY775 10, ACY738 50, Tubastatin A 25 mg/kg/day; for fat mass and fat %, HDAC6 KO vs WT / lean mass, HDAC6 KO vs WT: DEXA; for blood glucose, serum insulin and leptin levels, HDAC6 KO vs WT / food intake, HDAC6 KO vs WT DIO mice / glucose tolerance and insulin sensitivity (GTT, ITT), HDAC6 KO vs WT: mouse, in vivo
WT lean mice = assay: 3-week treatment of WT lean mice; format: in vivo; conditions: for lean mass, total fat mass, fat percentage / body weight: 3 weeks; for body weight: ACY775 10, ACY738 50 mg/kg i.p.; for liver morphology: end of treatment
Experimental: Daily food intake (g) during 3 weeks of treatment. Serum leptin (ng/ml) levels were measured after 3 weeks of treatment. Lean mass (g); fat mass (g) and fat percentage (%) after 3 weeks of treatment were measured by DEXA scan. GTT was measured after 1 week of treatment. AOC analysis for GTT was performed. Blood glucose (mg/dl) level was measured after 1 week of treatment. ITT was measured after 2 weeks of treatment. Serum insulin (ng/ml) levels were measured after 3 weeks of treatment.

DIO mice [2] = assay: Single dose food intake in 24 h-fasted DIO mice; format: in vivo; conditions: ACY775 10, ACY738 50 mg/kg i.p.
Experimental: Food intake was analyzed hourly until 3:00 am. […] DEXA scans were performed in two different cohorts.

db/db mice = assay: 3-week treatment of db/db mice; format: in vivo; conditions: for glucose tolerance (GTT): 1 week; for ITT: 2 weeks; for body weight heavier than initial body weight: end of 3 weeks, ACY775 10, ACY738 50 mg/kg i.p.
Experimental: Daily food intake (g), Serum leptin (ng/ml), lean mass (g), fat mass (g) and fat percentage (%) were measured after 3 weeks of treatment measured by DEXA scan. GTT was determined after 1 week of treatment. AOC analysis for GTT was performed and Blood glucose (mg/dl) levels were measured after 1 week of treatment. Blood glucose (mg/dl) levels and Serum insulin (ng/ml) levels were measured after 3 weeks of treatment. ITT was assessed after 2 weeks of treatment. H&E staining of the liver sections was conducted after 3 weeks of treatment.

DIO mice [3] = assay: Conditioned place preference (CPP) assay in DIO mice; format: in vivo; conditions: fed and fasting conditions, vs vehicle
Experimental: DIO mice were treated with vehicle or ACY775 (10 mg/kg, i.p., once a day) for 3 days. On the fourth day, 1 h after the beginning of the light cycle, the mice were administered vehicle or ACY775 (10 mg/kg, i.p.) and the conditioned place preference (CPP) assay under the ad libitum feeding condition was utilized. The CPP assay was performed 6 h later under the ad libitum feeding condition (n=10 mice for both the Vehicle- and ACY775-treated groups). CPP assay under a 20-h fasting condition was also performed. DIG mice were treated with vehicle or ACY775 (10 mg/kg, i.p.) once a day and fasted for 15 h after the third injection. On the fourth day, 1 h after the beginning of the light cycle, the mice were administered vehicle or ACY775 (10 mg/kg body weight, i.p.) and the CPP assay was performed 5 h after this injection under the fasting condition (n=10 mice for both the Vehicle- and ACY775-treated groups).
Measurements were made of the total distance that the mice traveled during the CPP test, the average velocity of movement during the assay, the total time the mice spent in the dark chamber during the test; the frequency with which the mice traveled to the dark chamber during the test; the total time the mice spent in the food-paired white chamber; the frequency with which the mice traveled to the food paired white chamber; the total time the mice spent in the food-containing zone within the food-paired side chamber; and the frequency with which the mice traveled to the food-containing zone within the food-paired side chamber during the test.

[4] = tested on: STAT3^Tyr705 phosphorylation; assay: Leptin-stimulated hypothalamic STAT3 phosphorylation in DIO mice; format: in vivo; conditions: 45 min after leptin 1 mg/kg i.p., ACY775 10, ACY738 50, ricolinostat 50 mg/kg/day i.p.
Experimental: DIO mice were pretreated with ACY775 (10 mg/kg/day, i.p.) or vehicle for 3 days, which was followed by a last injection of ACY775 (or vehicle) in the morning of fourth day. 6 hours later mice were injected with saline or leptin (1 mg/kg, i.p.) and hypothalamus were extracted after 45 minutes following the leptin injection. Representative immunoblots for STAT3^Tyr705 phosphorylation and total STAT3 from the hypothalamus. Quantification of the ratio of p-STAT3^Tyr705 to total-STAT3 signal in the immunoblots. The results were reproduced in three independent experiments. The results were analyzed hourly.
DIO mice were pretreated with ACY775 (10 mg/kg/day, i.p.) or vehicle for 3 days, which was followed by a last injection of ACY775 (or vehicle) in the morning of fourth day. 6 hours later mice were injected with saline or leptin (1 mg/kg, i.p.) and the hypothalamus were extracted after 45 minutes following the leptin injection.
6 hours later mice were injected with saline or leptin (1 mg/kg, i.p.) and hypothalamus were extracted after 45 minutes following the leptin injection. Immunoblots for STAT3^Tyr705 phosphorylation and total STAT3 from the hypothalamus were made to quantify the ratio of p-STAT3^Tyr705 to total-STAT3 signal in the immunoblots. The results were reproduced in two independent experiments.
DIO mice were pretreated with ricolinostat (50 mg/kg/day, i.p.) or vehicle 3 days, which was followed by a last injection of ricolinostat (or vehicle) in the morning of fourth day. 6 hours later mice were injected with saline or leptin (1 mg/kg, i.p.) and the hypothalamus were extracted after 45 minutes following the leptin injection. Immunoblots were performed for STAT3^Tyr705 phosphorylation and total STAT3 from the hypothalamus. The ratio of p-STAT3^Tyr705 to total STAT3 signal in the immunoblots was quantified.

[5] = cited from earlier work; for brain/plasma ratio: in vivo

SMILES | energy expenditure (DIO mice [1]) | body weight, HDAC6 KO vs WT DIO mice (HDAC6 KO mice) | fat mass and fat %, HDAC6 KO vs WT (HDAC6 KO mice) | lean mass, HDAC6 KO vs WT (HDAC6 KO mice) | blood glucose, serum insulin and leptin levels, HDAC6 KO vs WT (HDAC6 KO mice) | food intake, HDAC6 KO vs WT DIO mice (HDAC6 KO mice) | glucose tolerance and insulin sensitivity (GTT, ITT), HDAC6 KO vs WT (HDAC6 KO mice) | daily food intake (WT lean mice) | insulin sensitivity (ITT) and circulating insulin levels (WT lean mice) | lean mass, total fat mass, fat percentage (WT lean mice) | body weight (WT lean mice) | liver morphology (WT lean mice) | food intake after a single dose (DIO mice [2]) | hepatic steatosis (db/db mice) | plasma insulin levels (db/db mice) | glucose tolerance (GTT) (db/db mice) | ITT (db/db mice) | body weight heavier than initial body weight (db/db mice) | CPP: cumulative duration in dark side chambers (DIO mice [3]) | leptin-stimulated hypothalamic p-STAT3^Tyr705 in inhibitor-pretreated mice [4] | further results
O=C(NO)c1cnc(NC2(c3ccccc3)CC2)nc1 [ACY738] | higher energy expenditure in light cycle, though without significant difference in dark cycle | slight decrease in the HDAC6KO mice | significantly lower in the wt group | not different | significantly higher in the ACY738-treated HDAC6 KO group | significantly higher in the HDAC6 KO group | did not improve glucose tolerance and increase insulin sensitivity in the HDAC6 KO mice | similar | no significant difference in insulin sensitivity and circulating insulin levels | did not detect any alterations | neither ACY775 nor ACY738 affected the body weight | similar | significantly reduced/blocked the food intake | did not improve hepatic steatosis | did not show any significant alterations | no difference in glucose tolerance | no significant difference in blood glucose levels | 2.53%±0.97% | no significant differences in cumulative duration | substantially increased | reduction of bodyweight of the wt mice (HDAC6 KO mice; DIO wt mice, ACY738 50 mg/kg i.p.): around 20%; CPP: time and frequency in food-containing white side chambers (DIO mice [3]): spent similar time and frequency of appearance; CPP: time and frequency in the food zone (DIO mice [3]): significantly shorter time and displayed lower frequency of appearance in the food zone
O=C(NO)c1cnc(NC2(c3cccc(F)c3)CCCCC2)nc1 [ACY775, 2-[[1-(3-fluorophenyl)cyclohexyl]amino]-N-hydroxy-5-pyrimidinecarboxamide] | higher in the both dark and light cycle | highly significant decrease in the bodyweight of the WT DIO mice when compared to HDAC6 KO DIG mice | significantly lower in the wt group | not different | significantly higher in the ACY775-treated HDAC6 KO group | blocked in the HDAC6 KO mice | could not increase glucose tolerance and insulin sensitivity in the HDAC6 KO mice | similar | no significant difference in insulin sensitivity and circulating insulin levels | did not detect any alterations | neither ACY775 nor ACY738 affected the body weight | similar | significantly reduced/blocked the food intake | did not improve hepatic steatosis | did not show any significant alterations | no difference in glucose tolerance | no significant difference in blood glucose levels | 3.82%±0.99% | no significant differences in cumulative duration | increased significantly | respiratory exchange ratio (RER) (DIO mice [1]; dark and light cycles): significantly decreased; brain/plasma ratio [5]: 1.26; fasting blood glucose after the first week (db/db mice): lower in ACY775-treated mice than vehicle-treated mice; food intake (db/db mice): transitionally reduced by ACY775 treatment during the first 2 days; blood glucose lowering at the end of treatment period (db/db mice; 3 weeks): completely diminished; CPP: appearance frequency in dark side chambers (DIO mice [3]): similar; CPP: time and frequency in food-containing white side chambers (DIO mice [3]): significantly shorter time and had lower frequency of appearance in the food-containing white side chambers; CPP: time and frequency in the food zone (DIO mice [3]): significantly shorter time and displayed lower frequency of appearance in the food zone
O=C(CCCCCCNC(=O)c1cnc(N(c2ccccc2)c2ccccc2)nc1)NO [Ricolinostat] |  |  |  |  |  |  |  |  |  |  |  |  |  |  |  |  |  |  |  | did not significantly increase STAT3^Tyr705 phosphorylation | brain/plasma ratio [5]: 0.01 and < 0.01; brain/plasma ratio ([5]; listed as ricolinostat): 0.01; brain penetrance / BBB permeability ([5]; in words): poor BBB permeability
